Measurements taken from a melting point compilation (Tetko et al.; mined from patent text by program, amines drawn as free bases though some values may be those of a salt).

Row | Structure (SMILES) | melting point
1 | COCCc1nc2c(N)nc3ccccc3c2n1CCOCCN(C)C(=O)Nc1ccccc1 | 185 to 186 °C
2 | CC(=O)On1c(=O)c(=O)[nH]c2cc(C(F)(F)F)c(C#N)cc21 | 230 °C
3 | Cc1nnc(C(=O)CCCCCCOc2ccc(O)cc2)o1 | 134 to 135 °C
4 | O=C1NCN(c2ccc(F)c(Cl)c2)C12CCN(C1CCC(c3ccc(F)cc3)(c3ccc(F)cc3)CC1)CC2 | 201 to 203 °C
5 | CCCN(CCC)[C@H]1Cc2c[nH]c3ccc(-c4nc(-c5ccccc5)no4)c(c23)C1 | 154 to 155 °C
6 | Cc1cc([N+](=O)[O-])cc(N)c1[N+](=O)[O-] | 125 to 127 °C
7 | COC1=C(OC)C(=O)C(CCCCCCCCCCCOC(C)=O)=C(C)C1=O | 41 °C
8 | Cn1c([N+](=O)[O-])cnc1-c1nnc2ccc(N=C(N)CCO)nn12 | 191 to 192 °C
9 | COc1ccc(C(=O)NCCCCCCCCCCCNC(=O)c2ccc(OC)cc2)cc1 | 150 to 151 °C
10 | CCc1c(CC(=O)NCCCCCC(=O)NCCc2ccc(NS(C)(=O)=O)cc2)ccc(OC)c1OC | 110 to 112 °C
11 | COc1cc(OC)c2c(=O)[nH]c(-c3ccc(OC)c(-c4ccc(S(C)(=O)=O)cc4)n3)nc2c1 | 279 to 281 °C
12 | COc1cc(I)c(CC(C)N2CCCC2)cc1OC (stereo not drawn) | 87 to 88 °C
13 | Cn1nc(C#N)c(Nc2ccc(C(F)(F)F)cc2[N+](=O)[O-])n1 | 116 to 117 °C
14 | COC(=O)c1cc2cc(NC(=O)c3cc4cc(N)ccc4[nH]3)ccc2[nH]1 | > 350 °C
15 | CC(=O)Nc1nc(C)c(S(=O)(=O)NC(CO)CO)s1 | 217 °C
16 | O=C(Nc1ccccc1)Nc1nc(=O)n(S(=O)(=O)c2ccccc2)cc1F | 210 to 214 °C
17 | COC(=O)c1cc(C(C)=O)c(OC(C)=O)cc1NC(=O)C(F)(F)F | 130 to 131 °C
18 | FC(F)C(F)(F)Sc1nc2c3ccccc3c3ccccc3c2[nH]1 | 230 to 231 °C
19 | CCCCCCCCCCNC(=O)c1cc(C(=O)NCCCCCCCCCC)cc([N+](=O)[O-])c1 | 115 to 116 °C

Row | Structure (SMILES) | melting point
20 | Nc1cc(Oc2ccc(Oc3cc(N)cc(C(F)(F)F)c3)c(C(F)(F)F)c2)cc(C(F)(F)F)c1 | 82 to 84 °C
21 | CC(=O)NCCc1cccc2ccc(OCCCCOc3ccc4occ(CCNC(C)=O)c4c3)cc12 | 160 to 162 °C
22 | CCC1(CC(=O)OC2OC(=O)c3ccccc32)OCCc2c1[nH]c1cc(OC(F)(F)F)ccc21 (stereo not drawn) | 150 °C
23 | CCN1C(=O)C(C)(C)C(=O)N(C)c2cc(OCCCn3cc(I)c(=O)c4ccccc43)ccc21 | 97 to 106 °C
24 | O=[N+]([O-])c1ccccc1COc1cccc2cccnc12 | 152 °C
25 | Nc1nc(-c2cccc3ccc(Br)cc23)co1 | 189 to 190 °C
26 | CCOC(=O)C1=C(c2ccc(-n3c(C)nc4cnccc43)cc2)NC(OC)=NC1c1ccccc1Cl (stereo not drawn) | 228 to 232 °C
27 | CS(=O)(=O)c1ccc(C[C@@H](NC(=O)OCc2ccccc2)[C@H](O)C(N)=O)cc1 | 186 to 191 °C
28 | CC(=O)Nc1sc([N+](=O)[O-])cc1C(=O)O | 238 to 240 °C
29 | C=CC(=O)OCCCCCCCCCCCOc1ccc(O)cc1 | 72 to 74 °C
30 | N#Cc1ccc(C(OCC2OC(n3ccc(=O)[nH]c3=O)CC2O)(c2ccccc2)c2ccccc2)cc1 (stereo not drawn) | 92 to 95 °C
31 | S=C=NCC1CC(c2ccc(Br)cc2)=NO1 (stereo not drawn) | 123 to 125 °C
32 | CCCCC(=O)Nc1ccc(N)cc1Cl | 96.5 to 99 °C
33 | CCOC(=O)c1[nH]c(CC)c(C)c1CC(C)C | 53 to 55 °C
34 | CCOC(=O)c1[nH]c2cc(Cl)cc(Cl)c2c1NCC(=O)c1cccc(F)c1 | 234 to 235 °C
35 | COc1ccc2ncc3ncn(-c4ccccc4Cl)c3c2c1 | 202 to 205 °C
36 | Nc1nc(-c2ccccc2)c(CCBr)c2ncnn12 | 193 to 194 °C
37 | OC(Cn1cncn1)(c1ccccc1)C1OC1c1ccccc1Cl (stereo not drawn) | 180 to 182 °C
38 | COc1ccc(-c2cc(SC(F)(F)F)[nH]c2-c2ccc(OC)cc2)cc1 | 114 to 115 °C

Row | Structure (SMILES) | melting point
39 | O=C(NN=CC(F)(F)C(F)(F)F)c1nc(Oc2cccc(C(F)(F)F)c2)ccc1Cl | 130 to 131 °C
40 | O=c1c(-c2ccc(F)cc2)c(-c2ccc(S(=O)(=O)C(F)(F)F)cc2)cnn1Cc1ccccc1 | 80 to 115 °C
41 | O=[N+]([O-])c1cc(-c2ccc(Cl)cc2)[nH]c1SC(F)(F)F | 185 to 193 °C
42 | COC(=O)CCSc1scnc1C(=O)O | 112 to 116 °C
43 | CCCCCCCC1=CCC(c2cc(F)c(F)c(F)c2)C=C1 (stereo not drawn) | 14 °C
44 | O=CNCCCCCCO | 43.5 to 45 °C
45 | COc1ccc(-c2nc(Sc3ccccc3)[nH]c2-c2ccc(OC)cc2)cc1 | 177 to 179 °C
46 | CC[C@@H]1O[C@](C#CC2CC2)(C(F)(F)F)c2c(ccc(F)c2F)NC1=O (relative stereo) | 180 to 181 °C
47 | CCCCCCCCCCCCCCCCCCNC(=O)OCC(CNS(=O)(=O)CCCCl)NC(C)=O (stereo not drawn) | 110 to 112 °C
48 | COc1ccnc(CCc2nc3cc(-c4ccoc4)cnc3[nH]2)c1 | 193 to 194 °C
49 | C#Cc1ccc(Cn2cc(-c3ccc(OC)cc3)ccc2=O)cn1 | 273 °C
50 | COC(=O)c1nc(CN2CCOCC2)n(-c2ccc(Cl)cc2C(=O)c2ccccc2)n1 | 165 to 170 °C
51 | CCOC(=O)c1sc(-c2ccc(C#N)cc2)nc1C | 144 °C
52 | COc1ccc(COC(=O)NCCc2c[nH]c3ccccc23)cc1 | 108 to 109 °C
53 | CC(Oc1ccc(COc2ccc(Cl)cc2)cc1)C(=O)OCCOc1cc(Cl)c(Cl)cc1Cl (stereo not drawn) | 83 °C
54 | COc1cc(S(=O)(=O)c2ccccc2)ccc1[N+](=O)[O-] | 128 to 130 °C
55 | COc1cc(Nc2nccc(Nc3ccc(OCc4ccccc4)cc3)n2)cc(OC)c1OC | 161 to 164 °C
56 | Cc1cc(O)c(O)cc1S(=O)(=O)c1ccc(F)cc1 | 175 to 177 °C

Next, values leading:

Row | melting point | Structure (SMILES)
57 | 81.5 to 82.5 °C | C/C(C=O)=C\COc1cccc2ccccc12
58 | 158 °C | CCCc1nc(C)n2nc(S(=O)(=O)N(C)C)nc2c1Cc1ccc(-c2ccccc2C#N)cc1
59 | 60 to 63 °C | CCOC(=O)CCCCCN(C)S(=O)(=O)C=C(C(C)=O)c1cccc([N+](=O)[O-])c1
60 | 153 to 155 °C | CC(C)c1cccc(C(C)C)c1NS(=O)(=O)CC(=O)O
61 | 90 to 93 °C | CC(C)(C)c1ccc(O)c(C2=CCCCC2)c1
62 | 90 to 91 °C | CN(c1ncccc1C=O)C1CCN(C(=O)OC(C)(C)C)CC1
63 | 230 to 231 °C | CC(C)(C)c1cc(C(=O)NCc2ccc([N+](=O)[O-])cc2)cc(C(C)(C)C)c1O
64 | 236 °C | CCOC(=O)C1=C(N)NC2=C(C(=O)CCC2)C1C (stereo not drawn)
65 | 124 to 125 °C | CC1(C)CCC(C)(C)c2cc(N(CCCCO)C(=O)Nc3cccc(C(=O)O)c3)ccc21
66 | 203 °C | COc1ccc(-c2cc(C(F)(F)F)n3ncc(C(=O)Nc4cccc(S(=O)(=O)N5CCOCC5)c4)c3n2)cc1
67 | > 253 °C | Cc1nc2c(n1C)C(=O)c1ccccc1C2=O
68 | 116 to 119 °C | CC(C)N(C(N)=O)c1ccc2c(c1)OCO2
69 | 188 to 190 °C | COC(=O)C1CCc2cc(C(=O)c3ccccc3Cl)c(O)cc21 (stereo not drawn)
70 | 232 to 233 °C | COc1c(-c2cc3c(s2)CCC(O)C3)ccc2c(=O)c(C(=O)O)cn(C3CC3)c12 (stereo not drawn)
71 | 182 to 184 °C | CCNC(=O)c1c(C2CC2)nc(CC)n1Cc1ccc2oc(-c3ccccc3C(=O)O)c(Br)c2c1
72 | 103 to 106 °C | CCOC(=O)C1=C(O)c2ccccc2N(c2ccccc2)C1
73 | 249 to 250 °C | CC(C)(C)OC(=O)N1CCC(N2Cc3ccccc3NC2=NC#N)CC1
74 | 163 to 164 °C | CC(C)Nc1cccnc1N1CCN(C(=O)c2ccc(C(=O)N3CCSCC3)cc2)CC1
75 | 211 to 212 °C | COc1ccc(-c2cnc3[nH]cc(C(=O)NC4CCN(C(C)=O)C4)c3n2)cc1OC (stereo not drawn)
76 | 182 to 183 °C | CCCn1nc2c(N)nc3ccccc3c2c1CC(C)(C)NC(C)=O
77 | 63.5 to 64.5 °C | CCOC(=O)C1(Cc2ccc(OC)cc2)CCCC1

Row | melting point | Structure (SMILES)
78 | 175 to 177 °C | O=C1N(Cc2ccc(C(F)(F)F)o2)c2ccccc2C12COc1ccc(=O)[nH]c12 (stereo not drawn)
79 | 120 to 122 °C | CCOC(=NC(=O)c1ccncc1)N1Cc2ccccc2-c2ccccc2C1
80 | 152 to 154 °C | CCCc1[nH]c2cc(C(=O)OC)ccc2c1C(=O)C1CC1
81 | 129 to 131 °C | COc1cc2ncnc(N3CCC(C(C)CN4CCCS4(=O)=O)CC3)c2cc1OC (stereo not drawn)
82 | 85 to 86 °C | CCc1nc(C(=O)c2ccc(Cl)cc2Cl)c(C=O)n1C(CC)CC
83 | 150 to 151 °C | CNS(=O)(=O)c1cc(-c2ccc(C(F)(F)F)n(C)c2=O)c(F)cc1Cl
84 | 172 to 174 °C | C/C(=N\OC(=O)c1ccccn1)[C@H]1CC[C@H]2[C@@H]3CCC4=CC(=O)CC[C@]4(C)[C@H]3CC[C@]12C
85 | 126 to 127 °C | CN(CCO)Cc1cc(C(=O)c2ccc(Cl)cc2)cc(C(C)(C)C)c1O
86 | 105 to 107 °C | CCOC(=O)Nc1ccc(C2CCN(C(=O)OCC)CC2)cc1
87 | 180 to 181 °C | COc1ccc(S(=O)(=O)Nc2cccnc2Nc2cccc(F)c2)cc1
88 | 190 to 191 °C | CN(C)C=Cc1ncc([N+](=O)[O-])n1CCc1ccncc1
89 | 110 to 111 °C | COC(=O)c1ccc([C@H]2CC[C@H](C3OCCO3)CC2)cc1
90 | 134 °C | CCSc1ccc(C(=O)O)c(C(F)(F)F)c1
91 | 163 to 165 °C | NCC(=O)N1c2ccccc2N(Cc2ccccc2)C(=O)[C@H]2CCC[C@H]21 (relative stereo)
92 | 142 to 144 °C | CCCc1nn(C)c2c(OCCOc3ccc(CC(OCC)C(=O)O)cc3)nc(C)nc12 (stereo not drawn)
93 | 124 °C | COC(=O)CCC(=O)Nc1cccc(COc2ccc(C(C)=O)c(OC)c2)c1
94 | 206 to 207 °C | CC(C)Cn1c(CNC(=O)OC(C)(C)C)c(-c2cccc(F)c2)c2cc(C(=O)O)ccc2c1=O
95 | 175 to 177 °C | c1cc2c3c(c1)CNc1ccccc1N3CC2
96 | 124 to 126 °C | CC(C)(C)ONC(=O)Oc1ccccc1
97 | 134 to 136 °C | COCCNc1nc(C)nc2c1nnn2-c1ccc(C(C)C)cc1Br
98 | 174 to 175 °C | CCN1CCCC1CNC(=O)c1cccc(NC(=O)N2CCc3cc(SC)c(C(F)(F)F)cc32)c1 (stereo not drawn)
